# Assay: Solubility of dasatinib in solvents, quantified using HPLC
# Assay type: physicochemical
# Details: benzyl alcohol doped with oleic acid versus benzyl alcohol
# Description: The solubility of dasatinib in benzyl alcohol, ethyl acetate, and mixtures of oleic acid and benzyl alcohol were quantified using HPLC.
smiles,measurement,value
Cc1nc(Nc2ncc(C(=O)Nc3c(C)cccc3Cl)s2)cc(N2CCN(CCO)CC2)n1 [dasatinib],improvement of solubility,2-3 fold

# From US10583092B2, “Therapeutic nanoparticles comprising a protonatable nitrogen therapeutic agent and methods of making and using same” (Pfizer Inc., priority 2014, dated 2020)
